Patent US20260226064A1, “POLYCYCLIC COMPOUND FOR TREATING NEUROLOGICAL DISEASES AND TUMORS” (Shanghai Institute of Organic Chemistry, Chinese Academy of …, priority 2023, published 2026)

Test system: acetylated microtubule in HEK293T cells
Assay: Microtubule-Stabilizing Activity Assay (acetylated microtubule immunoblot, HEK293T, colchicine challenge)
Type: cell-based
Conditions: 1 h pre-incubation, then colchicine 1 μM 3 h, relative to CNDR-51657 at 500 nM = 1.00; for Microtubule-Stabilizing Activity 50 nM: compound 50 nM; for Microtubule-Stabilizing Activity 500 nM: compound 500 nM
Experimental: Compound solvent: 100% dimethyl sulfoxide (DMSO). Cell line: HEK293T (ATCC, CRL3216). Culture conditions: Cells were cultured in Dulbecco's Modified Eagle's Medium (DMEM) containing 10% fetal bovine serum and 1% penicillin/streptomycin. Cells were cultured at 37° C. in a Thermo-Fisher incubator with a humidified atmosphere of 5% carbon dioxide.
One day prior to the experiment, 100,000 cells were seeded at a density of 200,000 cells/ml in a 24-well plate.
On the day of the experiment, 20 μl of PBS phosphate buffer containing the test compound at experimental concentrations or an equivalent volume of DMSO was added to each well. After incubating at 37° C. for 1 hour, colchicine was added to each well at a final concentration of 1 μM, followed by an additional 3-hour incubation at 37° C. The plate was then placed on ice. The medium in each well was removed, and the cells were washed with ice-cold PBS. After aspirating the PBS, 0.1 mL of ice-cold RIPA lysis buffer (containing 0.5% sodium deoxycholate, 0.1% SDS, 1% NP-40, 5 mM EDTA, pH 8.0) was quickly added. Prior to use, a commercial protease inhibitor cocktail (1:500) and 1 μM deacetylase inhibitor Trichostatin A (Sangon Biotech Co., Ltd.) were added to the cell lysis buffer. The cell lysate were transferred to a 1.5 ml centrifuge tube, sonicated, and centrifuged at 13,000 rpm for 10 minutes. The supernatant was collected, and protein concentration was determined using the BCA assay.
Based on existing literature (Black, 1989; Kurt, 2011), acetylated microtubule was used as an indicator of microtubule polymerization to assess the microtubule-stabilizing efficacy of the compounds. HEK293T cell lysates were analyzed by SDS-PAGE (7.5% gel) and immunoblotted using acetylated microtubule antibody (1:20,000, Sigma-Aldrich, T7451) and α-microtubule antibody (1:2,000, Proteintech, 11224-1-AP). After incubation with fluorescent dye-conjugated IgG (1:40,000, Licor), the blots were visualized using an Odyssey-Dlx imaging system. Grayscale analysis was performed using ImageJ.
The compound activity was quantified with the microtubule-stabilizing activity of CNDR-51657 (C5) (Jane, 2016) at 500 nM as 1.00.

Compound	Microtubule-Stabilizing Activity 50 nM	Microtubule-Stabilizing Activity 500 nM
6-(4-(((1R,5S,6r)-3-Azabicyclo[3.1.0]hexan-6-yl)methoxy)-2,6-difluorophenyl)-5-methyl-N-(2,2,2-trifluoroethyl)-[1,2,4]triazolo[1,5-a]pyrimidin-7-amine [Example 35]	0.87	1.80
CC(C)[C@@H](C)Nc1c(-c2c(F)cc(OC3CC4(CNC4)C3)cc2F)c(Cl)nc2ncnn12 [Example 1, (R)-6-(4-((2-azaspiro[3.3]hept-6-yl)oxy)-2,6-difluorophenyl)-5-chloro-N-(3-methylbut-2-yl)-[1,2,4]triazolo[1,5-a]pyrimidin-7-amine]	0.36	0.71
CC(C)[C@@H](C)Nc1c(-c2c(F)cc(OC3CC4(C3)CN(C)C4)cc2F)c(Cl)nc2ncnn12 [Example 2, (R)-6-(4-((2-methyl-2-azaspiro[3.3]hept-6-yl)oxy)-2,6-difluorophenyl)-5-chloro-N-(3-methylbut-2-yl)-[1,2,4]triazolo[1,5-a]pyrimidin-7-amine]	0.29	0.71
C[C@H](Nc1c(-c2c(F)cc(OC3CC4(CNC4)C3)cc2F)c(Cl)nc2ncnn12)C(F)(F)F [Example 3, (S)-6-(4-((2-Azaspiro[3.3]heptan-6-yl)oxy)-2,6-difluorophenyl)-5-chloro-N-(1,1,1-trifluoropropan-2-yl)-[1,2,4]triazolo[1,5-a]pyrimidin-7-amine]	0.36	0.49
CC(C)[C@@H](C)Nc1c(-c2c(F)cc(OC3CC4(CCNCC4)C3)cc2F)c(Cl)nc2ncnn12 [Example 5, (R)-6-(4-((7-Azaspiro[3.5]nonan-2-yl)oxy)-2,6-difluorophenyl)-5-chloro-N-(3-methylbutan-2-yl)-[1,2,4]triazolo[1,5-a]pyrimidin-7-amine]	0.41	0.76
CC(C)[C@@H](C)Nc1c(-c2c(F)cc(OC3CC4(CCN(C)CC4)C3)cc2F)c(Cl)nc2ncnn12 [Example 6, (R)-6-(4-((7-Methyl-7-azaspiro[3.5]nonan-2-yl)oxy)-2,6-difluorophenyl)-5-chloro-N-(3-methylbutan-2-yl)-[1,2,4]triazolo[1,5-a]pyrimidin-7-amine]	0.25	0.38
C[C@H](Nc1c(-c2c(F)cc(OC3CC4(CCNCC4)C3)cc2F)c(Cl)nc2ncnn12)C(F)(F)F [Example 7, (S)-6-(4-((7-Azaspiro[3.5]nonan-2-yl)oxy)-2,6-difluorophenyl)-5-chloro-N-(1,1,1-trifluoropropan-2-yl)-[1,2,4]triazolo[1,5-a]pyrimidin-7-amine]	0.42	0.81
C[C@H](Nc1c(-c2c(F)cc(OC3CC4(CCN(C)CC4)C3)cc2F)c(Cl)nc2ncnn12)C(F)(F)F [Example 8, (S)-6-(4-((7-Methyl-7-azaspiro[3.5]nonan-2-yl)oxy)-2,6-difluorophenyl)-5-chloro-N-(1,1,1-trifluoropropan-2-yl)-[1,2,4]triazolo[1,5-a]pyrimidin-7-amine]	0.43	0.31
CNC1CC2(C1)CC(Oc1cc(F)c(-c3c(Cl)nc4ncnn4c3N[C@H](C)C(C)C)c(F)c1)C2 (stereo partly drawn) [Example 9, (R)-5-Chloro-6-(2,6-difluoro-4-((6-(methylamino)spiro[3.3]heptan-2-yl)oxy)phenyl)-N-(3-methylbutan-2-yl)-[1,2,4]triazolo[1,5-a]pyrimidin-7-amine]	0.53	1.74
CC(C)[C@@H](C)Nc1c(-c2c(F)cc(OC3CC4(C3)CC(N(C)C)C4)cc2F)c(Cl)nc2ncnn12 (stereo partly drawn) [Example 10, (R)-5-Chloro-6-(4-((6-(dimethylamino)spiro[3.3]heptan-2-yl)oxy)-2,6-difluorophenyl)-N-(3-methylbutan-2-yl)-[1,2,4]triazolo[1,5-a]pyrimidin-7-amine]	0.26	0.28
C[C@H](Nc1c(-c2c(F)cc(OC3CC4(C3)CC(N(C)C)C4)cc2F)c(Cl)nc2ncnn12)C(F)(F)F (stereo partly drawn) [Example 12, (S)-5-chloro-6-(4-((6-(dimethylamino)spiro[3.3]heptan-2-yl)oxy)-2,6-difluorophenyl)-N-(1,1,1-trifluoropropan-2-yl)-[1,2,4]triazolo[1,5-a]pyrimidin-7-amine]	0.30	0.78
CNC1CC2(C1)CC(Oc1cc(F)c(-c3c(Cl)nc4ncnn4c3N[C@H](C)C3CCC3)c(F)c1)C2 (stereo partly drawn) [Example 13, (R)-5-chloro-N-(1-cyclobutylethyl)-6-(2,6-difluoro-4-((6-(methylamino)spiro[3.3]heptan-2-yl)oxy)phenyl)-[1,2,4]triazolo[1,5-a]pyrimidin-7-amine]	0.35	1.39
C[C@@H](Nc1c(-c2c(F)cc(OC3CC4(C3)CC(N(C)C)C4)cc2F)c(Cl)nc2ncnn12)C1CCC1 (stereo partly drawn) [Example 14, (R)-5-Chloro-N-(1-cyclobutylethyl)-6-(4-((6-(dimethylamino)spiro[3.3]heptan-2-yl)oxy)-2,6-difluorophenyl)-[1,2,4]triazolo[1,5-a]pyrimidin-7-amine]	0.23	1.98
CNC1CC2(C1)CC(Oc1cc(F)c(-c3c(Cl)nc4ncnn4c3NCC(F)(F)F)c(F)c1)C2 (stereo not shown) [Example 15, 5-Chloro-6-(2,6-difluoro-4-((6-(methylamino)spiro[3.3]heptan-2-yl)oxy)phenyl)-N-(2,2,2-trifluoroethyl)-[1,2,4]triazolo[1,5-a]pyrimidin-7-amine]	0.15	1.60
CN(C)C1CC2(CC(Oc3cc(F)c(-c4c(Cl)nc5ncnn5c4NCC(F)(F)F)c(F)c3)C2)C1 (stereo not shown) [Example 16]	0.07	1.66
CNC1CCC2(CC1)CC(Oc1cc(F)c(-c3c(Cl)nc4ncnn4c3N[C@H](C)C(C)C)c(F)c1)C2 (stereo partly drawn) [Example 17, (R)-5-Chloro-6-(2,6-difluoro-4-((7-(methylamino)spiro[3.5]nonan-2-yl)oxy)phenyl)-N-(3-methylbutan-2-yl)-[1,2,4]triazolo[1,5-a]pyrimidin-7-amine]	0.21	0.89
CC(C)[C@@H](C)Nc1c(-c2c(F)cc(OC3CC4(CCC(N(C)C)CC4)C3)cc2F)c(Cl)nc2ncnn12 (stereo partly drawn) [Example 18, (R)-5-Chloro-6-(2,6-difluoro-4-((7-(dimethylamino)spiro[3.5]nonan-2-yl)oxy)phenyl)-N-(3-methylbutan-2-yl)-[1,2,4]triazolo[1,5-a]pyrimidin-7-amine]	0.07	0.68
CNC1CCC2(CC1)CC(Oc1cc(F)c(-c3c(Cl)nc4ncnn4c3N[C@@H](C)C(F)(F)F)c(F)c1)C2 (stereo partly drawn) [Example 19, (S)-5-Chloro-6-(2,6-difluoro-4-((7-(methylamino)spiro[3.5]nonan-2-yl)oxy)phenyl)-N-(1,1,1-trifluoropropan-2-yl)-[1,2,4]triazolo[1,5-a]pyrimidin-7-amine]	0.16	0.62
C[C@H](Nc1c(-c2c(F)cc(OC3CC4(CCC(N(C)C)CC4)C3)cc2F)c(Cl)nc2ncnn12)C(F)(F)F (stereo partly drawn) [Example 20, (S)-5-Chloro-6-(2,6-difluoro-4-((7-(dimethylamino)spiro[3.5]nonan-2-yl)oxy)phenyl)-N-(1,1,1-trifluoropropan-2-yl)-[1,2,4]triazolo[1,5-a]pyrimidin-7-amine]	0.05	1.32
CC(C)[C@@H](C)Nc1c(-c2c(F)cc(OCC3[C@H]4CNC[C@@H]34)cc2F)c(Cl)nc2ncnn12 (stereo partly drawn) [Example 21, 6-(4-(((1R,5S,6r)-3-Azabicyclo[3.1.0]hexan-6-yl)methoxy)-2,6-difluorophenyl)-5-chloro-N—((R)-3-methylbutan-2-yl)-[1,2,4]triazolo[1,5-a]pyrimidin-7-amine]	1.27	1.60
